{
  "source": "patent US5447931A",
  "about": "“New therapeutic use of heterocyclylpiperazines as 5-HT3 agonists and new compounds” (Sanofi, priority 1992, dated 1995)",
  "system": "5-HT3 receptors",
  "experiment": "Bezold-Jarisch effect (reduction of heart rate) in the anesthetized rat, intravenous administration",
  "assay_type": "in vivo, Sprague-Dawley rats",
  "conditions": "antagonist against the heart rate reduction by compounds of formula (I)",
  "data": [
    {"compound": "CN1[C@@H]2CC[C@H]1C[C@@H](OC(=O)c1c[nH]c3ccccc13)C2", "note": "[ICS 205-930]", "values": [
      {"measurement": "inhibition by antagonist of the Bezold-Jarisch effect evoked by compounds of formula (I)", "value": "inhibited"}
    ]},
    {"compound": "COc1cc(N)c(Cl)cc1C(=O)NC1CN2CCC1CC2", "note": "(centres unmarked) [zacopride]", "values": [
      {"measurement": "inhibition by antagonist of the Bezold-Jarisch effect evoked by compounds of formula (I)", "value": "inhibited"}
    ]}
  ]
}
